Data on nine compounds can be found in patent US8236533B2, “Process for the production of γ-glutamylcysteine” (NewSouth Innovations PTY Limited, priority 2005, dated 2012).

Structures are written as SMILES. In brackets after ≈: the same amount, converted by molar mass. Several values for one entry are separate records, joined by “and”; a condition that tells them apart may be missing. Equal entries are not always repeated.

Series [1] in a line: physchem.
Another series is described as follows: isoelectric point (pI). Type of series: physicochemical.
Series [2] in a line: stability on removal of water by evaporation. The series is classed as physicochemical. Conditions: temperatures above 40° C. As for the experimental part:
Example 13 describes purification of GGC from a mixture comprising GGC and 2-mercaptoethanol, with subsequent freeze-drying. However, it is not expected that freeze drying would be an economic option at industrial scale. Removal of water by conventional evaporation at temperatures above 40° C. results in degradation of the product. However, a process of concentration by nanofiltration is expected to be most suitable at industrial scale as it is both low temperature and a cost effective method for water removal. […] After the removal of the majority of water by nanofiltration and a pH adjustment to the pH of the isoelectric point (GGC=pH 2.8) the addition of an antisolvent such as ethanol or acetone can be added to initiate spontaneous crystallization. The final product can be collected by filtration and dried under reduced pressure.

A further series relates to glutathione levels. Briefly: utilization of GGC in mice: glutathione levels. The series is classed as in vivo. To be noted: preliminary studies. The text has this:
The final form of GGC, whether it be in the reduced state as γ-glutamylcysteine or in the disulphide form as bis-γ-glutamylcystine, is dependent on the final application of the dipeptide. […] The oxidised form bis-γ-glutamylcystine is more likely to be suitable for application as a nutraceutical supplement as no special precautions to prevent the oxidation of the sulphydryl, would be required, whereas application in the treatment of poisoning or as an antioxidant in food or cosmetics would require the reducing power of the sulphydryl of γ-glutamylcysteine. Whatever the desired form, both are relatively easily interconverted by reduction which can be achieved either chemically (Jocelyn, P. C., Chemical reduction of disulfides. Methods in Enzymology, 1987. 143: p. 246-56), electrochemically (Genders, J. D., N. L. Weinberg, and D. J. Mazur, High yield methods for electrochemical preparation of cysteine and analogues. 1988, U.S. Pat. No. 5,106,463. The Electrosynthesis Company, Inc.) or oxidized to the disulphide form simply by exposing a solution to air (oxygen) with a trace amount of copper or iron salt added to catalyse the reaction.

A short description of series [3]: physchem. To be noted: pH 9.1, aqueous with cosolvent or surfactant or cyclodextrin, thermodynamic from solid.

For `COC(=O)[C@@H](N)CSSC[C@H](N)C(=O)OC.Cl.Cl` [CDME, cystine dimethyl ester dihydrochloride], the solubility in “physchem [1]” is greater than 20000 µg/mL.

Compound `N[C@@H](CSSCCO)C(=O)O` [Cys-Merc, cysteine-mercaptoethanol mixed disulphide] returned an aqueous solubility in “aqueous solubility” of roughly 20000 µg/mL (≈ 101 mM). Further, in “isoelectric point (pI)”, the “isoelectric point (pI)” value was 5.2 and 5.3.

As for `CCOC(=O)CC[C@H](N)C(=O)O` [GEE, glutamic acid γ-ethyl ester], the “isoelectric point (pI)” value in “isoelectric point (pI)” was determined as 5.8.

With `N[C@@H](CCC(=O)N[C@@H](CS)C(=O)O)C(=O)O` [GGC, γ-Glutamylcysteine], in series [2], the “stability on conventional evaporation of water” value is “degradation”. Besides, in the series with glutathione levels, the “glutathione levels after administration” value is “significantly increase glutathione levels”. Moreover, the “isoelectric point (pI)” value in “isoelectric point (pI)” is 2.8.

In the case of `N[C@@H](CCC(=O)NC(CSSCCO)C(=O)O)C(=O)O` (stereo partly shown) [GGC-Merc, γ-glutamylcysteine-mercaptoethanol disulphide], the “isoelectric point (pI)” value in the series “isoelectric point (pI)” worked out at 3.0.

`N[C@@H](CCC(=O)Nc1ccc([N+](=O)[O-])cc1)C(=O)O` [GPNA, L-γ-glutamyl-p-nitroanilide] showed a solubility limit in “aqueous solubility” (pH 8.5 in 100 mM phosphate buffer) of 8.4 mM (≈ 2240 µg/mL).

For `CC(=O)NCSC[C@H](N)C(=O)O` [S-acetamidomethylcysteine], the concentration in solution in “aqueous solubility” (water) (solubility) came to 2000 mM.

On to `N[C@@H](CCC(=O)N[C@@H](CSSC[C@H](NC(=O)CC[C@H](N)C(=O)O)C(=O)O)C(=O)O)C(=O)O` [bis-γ-glutamylcystine], for which the “glutathione levels after administration” value in the series with glutathione levels is listed as “significantly increase glutathione levels”.

In the case of `N[C@@H](CSSC[C@H](N)C(=O)O)C(=O)O` [cystine], the solubility in the series “aqueous solubility” (aqueous solution, pH 3, aqueous buffer) is 100 µg/mL; in the series “aqueous solubility” (phosphate buffer, pH 8.5, aqueous buffer) it was 16.6 mM; in the series “aqueous solubility” (water, 37 °C, pH 9.1, water), roughly 5000 µg/mL; in “physchem [3]” (50% DMF in diethanolamine (DEA) buffer), roughly 30 mM; in the series “physchem [3]” (50% DMF in water), roughly 9000 µg/mL.

The solubility is how much of the substance goes into solution per volume. A low value points to little dissolved substance. By aqueous solubility is commonly meant how much of the substance goes into solution per volume. A lower aqueous solubility goes with little dissolved substance.
